Assay results taken from patent US20240252488A1 (KOREA RESEARCH INSTITUTE OF CHEMICAL TECHNOLOGY, priority 2020, published 2024).

Key:
[1] = target: T1, MLKL (Homo sapiens, UniProt Q8NB16); assay: MLKL degradation assay in HepG2 cell line (western blot); type: cell-based; parameters: endogenous in cells; host or cells: HepG2 or HaCaT; conditions: cell line not given; for Degradation assay (Degradation %) 1 μM: compound 1 μM; for Degradation assay (Degradation %) 10 μM: compound 10 μM
T1 sequence (Q8NB16 1-471): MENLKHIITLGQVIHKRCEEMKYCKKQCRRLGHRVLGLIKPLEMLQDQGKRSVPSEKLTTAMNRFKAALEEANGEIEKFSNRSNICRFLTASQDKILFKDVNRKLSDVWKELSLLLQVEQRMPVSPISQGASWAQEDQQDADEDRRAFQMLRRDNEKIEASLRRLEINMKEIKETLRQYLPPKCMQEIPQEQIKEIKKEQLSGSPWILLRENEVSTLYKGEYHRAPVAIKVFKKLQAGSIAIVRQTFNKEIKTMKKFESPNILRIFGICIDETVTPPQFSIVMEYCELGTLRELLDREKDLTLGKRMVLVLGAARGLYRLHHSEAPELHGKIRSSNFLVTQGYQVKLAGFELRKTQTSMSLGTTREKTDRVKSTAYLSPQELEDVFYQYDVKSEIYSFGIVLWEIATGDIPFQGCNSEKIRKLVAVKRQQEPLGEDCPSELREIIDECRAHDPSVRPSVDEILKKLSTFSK
How it was run: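 Chemiluminescent western blot signal reports remaining MLKL protein in HepG2 cells after 20-24 h treatment with compound at a final 1 or 10 μM. Equal protein (10-15 μg, BCA) is loaded per lane.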

[2] = target: T1, MLKL; assay: Measurement of binding affinity with MLKL receptor (competitive binding assay, Kd); parameters: made in house; host or cells: HEK 293 cell line (T7 phage in E. coli BL21-derived host is also described)
How it was run: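 qPCR of MLKL eluted from liganded beads served as the read-out, from which Kd was derived. The protein was made in HEK 293 cells with a DNA tag, and test compounds competed with the bead-bound ligand at 0.9% final DMSO.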

[3] = system: FADD−/− Jurkat cells; assay: Necroptosis inhibition assay, TNF-α-induced necroptosis (CellTiter-Glo 2.0); type: cell-based, human; conditions: TNF-α 15 ng/mL; for Necroptosis inhibition assay (Rescue %) 1 μM: compound 1 μM; for Necroptosis inhibition assay (Rescue %) 10 μM: compound 10 μM
How it was run: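 Compound is added to cells at final concentrations of 0.1, 1 and 10 μM and left 30 minutes at room temperature. Necroptosis is induced with 15 ng/mL TNF-α, culture continues 20 to 24 hours at 37° C, and ATP-based luminescence reports viability.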

Nc1ncc(-c2cnn(C3CCN(CCOCCNc4ccc5c(c4)C(=O)N(C4CCC(=O)NC4=O)C5=O)CC3)c2)nc1C(=O)O[C@@H](C(=O)Nc1ccc(F)cc1)c1ccccc1 (stereo partly drawn) [TDH-131, (R)-2-((4-fluorophenyl)amino)-2-oxo-1-phenylethyl 3-amino-6-(1-(1-(2-(2-((2-(2,6-dioxopiperidin-3-yl)-1,3-dioxoisoindolin-5-yl)amino)ethoxy)ethyl)piperidin-4-yl)-1H-pyrazol-4-yl)pyrazine-2-carboxylate]
Degradation assay (Degradation %) 1 μM [1]: 51.13%
Degradation assay (Degradation %) 10 μM [1]: 47.86%
Kd [2]: 3.9 nM
Necroptosis inhibition assay (Rescue %) 1 μM [3]: 24.56%
Necroptosis inhibition assay (Rescue %) 10 μM [3]: 0.96%

Nc1ncc(-c2ccc(N3CCN(CCOCCOCCNC(=O)COc4cccc5c4C(=O)N(C4CCC(=O)NC4=O)C5=O)CC3)nc2)nc1C(=O)OC(C(=O)Nc1ccc(F)cc1)c1ccccc1 (stereo not shown) [TDH-261, 2-((4-fluorophenyl)amino)-2-oxo-1-phenylethyl 3-amino-6-(6-(4-(2-(2-(2-(2-((2-(2,6-dioxopiperidin-3-yl)-1,3-dioxoisoindolin-4-yl)oxy)acetamido)ethoxy)ethoxy)ethyl)piperazin-1-yl)pyridin-3-yl)pyrazine-2-carboxylate]
Degradation assay (Degradation %) 1 μM [1]: 34.54%
Degradation assay (Degradation %) 10 μM [1]: 42.25%
Kd [2]: 43 nM
Necroptosis inhibition assay (Rescue %) 1 μM [3]: 15.5%
Necroptosis inhibition assay (Rescue %) 10 μM [3]: 14.28%

Nc1ncc(-c2cnn(C3CCN(C(=O)COC4CCN(c5ccc6c(c5)C(=O)N(C5CCC(=O)NC5=O)C6=O)CC4)CC3)c2)nc1C(=O)O[C@@H](C(=O)Nc1ccc(F)cc1)c1ccccc1 (stereo partly drawn) [TDH-400, (R)-2-((4-fluorophenyl)amino)-2-oxo-1-phenylethyl 3-amino-6-(1-(1-(2-((1-(2-(2,6-dioxopiperidin-3-yl)-1,3-dioxoisoindolin-5-yl)piperidin-4-yl)oxy)acetyl)piperidin-4-yl)-1H-pyrazol-4-yl)pyrazine-2-carboxylate]
Degradation assay (Degradation %) 1 μM [1]: 82.22%
Degradation assay (Degradation %) 10 μM [1]: 74.77%
Kd [2]: 4.4 nM
Necroptosis inhibition assay (Rescue %) 1 μM [3]: 27.80%
Necroptosis inhibition assay (Rescue %) 10 μM [3]: 28.44%

Nc1ncc(-c2cnn(C3CCN(C(=O)CCC4CCN(C(=O)CCc5cccc6c5CN(C5CCC(=O)NC5=O)C6=O)CC4)CC3)c2)nc1C(=O)O[C@@H](C(=O)Nc1ccc(F)cc1)c1ccccc1 (stereo partly drawn) [TDH-439, (R)-2-((4-fluorophenyl)amino)-2-oxo-1-phenylethyl 3-amino-6-(1-(1-(3-(1-(3-(2-(2,6-dioxopiperidin-3-yl)-1-oxoisoindolin-4-yl)propanoyl)piperidin-4-yl)propanoyl)piperidin-4-yl)-1H-pyrazol-4-yl)pyrazine-2-carboxylate]
Degradation assay (Degradation %) 1 μM [1]: 86.02%
Degradation assay (Degradation %) 10 μM [1]: 91.86%
Kd [2]: 0.91 nM
Necroptosis inhibition assay (Rescue %) 1 μM ([3]; FADD−/− Jurkat cells): 41.96%
Necroptosis inhibition assay (Rescue %) 10 μM ([3]; FADD−/− Jurkat cells): 43.64%

Nc1ncc(-c2cnn(C3CN(CC4CCN(C(=O)COc5ccc6c(c5)C(=O)N(C5CCC(=O)NC5=O)C6=O)CC4)C3)c2)nc1C(=O)OC(C(=O)Nc1ccc(F)cc1)c1ccccc1 (stereo not shown) [TDH-299, 2-((4-fluorophenyl)amino)-2-oxo-1-phenylethyl 3-amino-6-(1-(1-((1-(2-((2-(2,6-dioxopiperidin-3-yl)-1,3-dioxoisoindolin-5-yl)oxy)acetyl)piperidin-4-yl)methyl)azetidin-3-yl)-1H-pyrazol-4-yl)pyrazine-2-carboxylate]
Degradation assay (Degradation %) 1 μM [1]: 79.84%
Degradation assay (Degradation %) 10 μM [1]: 89.54%
Kd [2]: 7.2 nM
Necroptosis inhibition assay (Rescue %) 1 μM [3]: 75.61%
Necroptosis inhibition assay (Rescue %) 10 μM [3]: 62.7%
